From patent US4315023A, “1-Phenethylimidazole derivatives” (Westwood Pharmaceuticals, Inc., priority 1980, dated 1982)
Counter-ions that a name gives are not always drawn. Blank lines part the entries; values can stand above or below the compound they belong to.

Experiments:
Trichophyton quinekeanum = Trichophyton quinekeanum induced skin infection in guinea pigs; assay type: in vivo, male guinea pigs; details: for EC50, Trichophyton Skin Infection: Table I, percentage drug concentration giving 50% of the score of untreated control, topical ointment; for EC50 (%) (95% CL), Trichophyton skin infection: Table II, N = 4, 3 applications day 1, 3 and 5; for Score, Determ. F / Score, Mean / Score, Determ. G / Score, Determ. E: lesion score 0-4
Description: In the guinea pig skin infection test, Trichophyton quinekeanum was cultured on a YGP agar slant at 28° C. for 10 days. Spores were collected from the mycelial mat and suspended in Sabouraud broth containing 2% of Tween 80. Groups of 3 male guinea pigs weighing between 400-500 g were used for each dose of test compound. The flanks of the animals were depilated and injured with sandpaper. The injured area was inoculated and rubbed with a glass rod on day 0 with 0.2 ml of the spore suspension containing 10^8 CFU/ml. The test compound was combined with a 1:1 mixture of polyethylene glycol 400 and 4000, and 0.3 ml of the ointment was applied to the infected area on day 1, 3 and 5. Lesions were examined on day 7 and scored as follows: 0, normal; 1, erythema; 2, erythema with whitish area; 3, erythema and numerous whitish areas; 4, erythema with confluent scaling and whitish pateches. A compound showing a mean score of 1.5 or less was considered active.
In the following Table I the antifungal activity of the test compound is reported as the EC50 value, which is the percentage drug concentration giving 50% of the score of untreated control animals. The EC50 was calculated by the method of least squares (K. Brounlee: Statistical Theory and Methodology in Science and Engineering, pages 345-349, Wiley Press, New York, 1965). In Table II a more detailed comparison on the in vivo antifungal activities of compound 3a and the isomeric prior art compound 2 are shown together with the data for compound 3b.
Treatment: 5 applications (day 0 to 4) against candida vaginal infection
and 3 applications (day 1, 3 and 5) against trichophyton skin infection

Candida albicans = Candida albicans induced vaginal infection in mice; assay type: in vivo, female mice; details: for EC50, Candida Vaginal Infection: Table I, percentage drug concentration giving 50% of the score of untreated control, intravaginal; for EC50 (%) (95% CL), Candida vaginal infection: Table II, N = 5, 5 applications day 0 to 4; for Score, Determination A / Score, Determination B / Score, Mean / Score, Determination C / Score, Determination D: score 0-4
Description: A majority of the compounds of formula 3 were evaluated together with the prior art compound of formula 2 in a Candida albicans induced vaginal infection in mice and a Trichophyton quinekeanum induced skin infection in guinea pigs. Sabouraud broth was inoculated with Candida albicans and the inoculum incubated for two days at 28° C. on a rotary shaker. Groups of four to five female mice weighing between 18-21 grams were infected intravaginally with a 0.01 ml portion of the cell suspension containing 10^8 cells/ml on day 0. The mice were treated subcutaneously with 0.5 mg of estradiol benzoate three days before and four days after infection. The test compounds were suspended in 1% carboxymethyl cellulose and 0.02 ml of the suspension was instilled intravaginally from day 0 (four hours after infection) to day 4 (5 applications). On day 7, vaginal exudate was taken by a thin glass rod and streaked on a YGP agar plate containing 100 mcg/ml of chloramphenicol. The plate was incubated for two days at 28° C. […] In the following Table I the antifungal activity of the test compound is reported as the EC50 value, which is the percentage drug concentration giving 50% of the score of untreated control animals. The EC50 was calculated by the method of least squares (K. Brounlee: Statistical Theory and Methodology in Science and Engineering, pages 345-349, Wiley Press, New York, 1965). In Table II a more detailed comparison on the in vivo antifungal activities of compound 3a and the isomeric prior art compound 2 are shown together with the data for compound 3b.

Streptococcus pyogenes = test: in vitro antibacterial activity (MIC), S. pyogenes; assay type: cell-based; details: 50% Nutrient Broth + 5% human serum
Staphylococcus aureus = test: in vitro antibacterial activity (MIC), S. aureus; assay type: cell-based; details: Nutrient Broth
Streptococcus pneumoniae = test: in vitro antibacterial activity (MIC), S. pneumoniae; assay type: cell-based; details: 50% Nutrient Broth + 5% human serum
S. faecalis = test: in vitro antibacterial activity (MIC), S. faecalis; assay type: cell-based, Streptococcus faecalis; details: Enterococcus faecalis; Nutrient Broth

EC50, Trichophyton Skin Infection (Trichophyton quinekeanum): 0.10% | EC50 (%) (95% CL), Trichophyton skin infection (Trichophyton quinekeanum): 0.10% | EC50, Candida Vaginal Infection (Candida albicans): > 0.3% | EC50 (%) (95% CL), Candida vaginal infection (Candida albicans): > 0.3%
SMILES: Clc1ccc(SCCSC(Cn2ccnc2)c2ccc(Cl)cc2Cl)cc1 (centres unmarked) [Compound 2, reference compound]
Score, Determ. F (Trichophyton quinekeanum; conc. 0.03%): 2.3 | Score, Mean (Trichophyton quinekeanum; conc. 0.03%): 2.3 | Score, Determ. F (Trichophyton quinekeanum; conc. 0.1%): 2.3 | Score, Mean (Trichophyton quinekeanum; conc. 0.1%): 2.3 | Score, Determ. F (Trichophyton quinekeanum; conc. 0.3%): 0.5 | Score, Mean (Trichophyton quinekeanum; conc. 0.3%): 0.5 | Score, Determination A (Candida albicans; conc. 0.03%): 2.8 | Score, Determination B (Candida albicans; conc. 0.03%): 3.2 | Score, Mean (Candida albicans; conc. 0.03%): 3.0 | Score, Determination A (Candida albicans; conc. 0.1%): 2.4 | Score, Determination B (Candida albicans; conc. 0.1%): 3.0 | Score, Mean (Candida albicans; conc. 0.1%): 2.7 | Score, Determination A (Candida albicans; conc. 0.3%): 3.4 | Score, Determination B (Candida albicans; conc. 0.3%): 1.8 | Score, Mean (Candida albicans; conc. 0.3%): 2.6

MIC (Streptococcus pyogenes): 63 µg/mL | MIC (Staphylococcus aureus; Strain A): 0.5 µg/mL | MIC (Staphylococcus aureus; Strain B): > 63 µg/mL | MIC (Staphylococcus aureus; Strain C): > 63 µg/mL | MIC (Streptococcus pneumoniae): 63 µg/mL | EC50, Trichophyton Skin Infection (Trichophyton quinekeanum): 0.039% | EC50 (%) (95% CL), Trichophyton skin infection (Trichophyton quinekeanum): 0.039% | EC50, Candida Vaginal Infection (Candida albicans): 0.0035% | EC50 (%) (95% CL), Candida vaginal infection (Candida albicans): 0.0035% | MIC (S. faecalis): > 63 µg/mL
SMILES: Clc1ccc(CSCSC(Cn2ccnc2)c2ccc(Cl)cc2Cl)cc1 (centres unmarked) [Compound 3a, 1-[2-(4-Chlorobenzylthiomethylthio)-2-(2,4-dichlorophenyl)ethyl]1-H-imidazole hydrogen fumarate]
Score, Determ. G (Trichophyton quinekeanum; conc. 0.01%): 2.0 | Score, Mean (Trichophyton quinekeanum; conc. 0.01%): 2.0 | Score, Determ. E (Trichophyton quinekeanum; conc. 0.03%): 1.8 | Score, Determ. F (Trichophyton quinekeanum; conc. 0.03%): 2.5 | Score, Determ. G (Trichophyton quinekeanum; conc. 0.03%): 1.5 | Score, Mean (Trichophyton quinekeanum; conc. 0.03%): 1.9 | Score, Determ. E (Trichophyton quinekeanum; conc. 0.1%): 1.5 | Score, Determ. F (Trichophyton quinekeanum; conc. 0.1%): 1.0 | Score, Determ. G (Trichophyton quinekeanum; conc. 0.1%): 0.3 | Score, Mean (Trichophyton quinekeanum; conc. 0.1%): 0.92 | Score, Determ. E (Trichophyton quinekeanum; conc. 0.3%): 1.0 | Score, Determ. F (Trichophyton quinekeanum; conc. 0.3%): 0 | Score, Determ. G (Trichophyton quinekeanum; conc. 0.3%): 0 | Score, Mean (Trichophyton quinekeanum; conc. 0.3%): 0.33 | times more efficacious than prior art compound 2, Trichophyton induced skin infection in guinea pigs (Trichophyton quinekeanum; hydrogen fumarate of 3a vs prior art compound 2): about 2.5 times | Score, Determination A (Candida albicans; conc. 0.0003%): 2.8 | Score, Determination B (Candida albicans; conc. 0.0003%): 2.2 | Score, Determination C (Candida albicans; conc. 0.0003%): 3.4 | Score, Determination D (Candida albicans; conc. 0.0003%): 2.5 | Score, Mean (Candida albicans; conc. 0.0003%): 2.6 | Score, Determination A (Candida albicans; conc. 0.001%): 3.0 | Score, Determination B (Candida albicans; conc. 0.001%): 2.2 | Score, Determination C (Candida albicans; conc. 0.001%): 2.8 | Score, Determination D (Candida albicans; conc. 0.001%): 2.0 | Score, Mean (Candida albicans; conc. 0.001%): 2.5 | Score, Determination A (Candida albicans; conc. 0.003%): 1.4 | Score, Determination B (Candida albicans; conc. 0.003%): 2.2 | Score, Determination C (Candida albicans; conc. 0.003%): 3.0 | Score, Determination D (Candida albicans; conc. 0.003%): 1.3 | Score, Mean (Candida albicans; conc. 0.003%): 2.0 | Score, Determination A (Candida albicans; conc. 0.01%): 1.5 | Score, Determination B (Candida albicans; conc. 0.01%): 0.4 | Score, Determination C (Candida albicans; conc. 0.01%): 1.3 | Score, Determination D (Candida albicans; conc. 0.01%): 1.3 | Score, Mean (Candida albicans; conc. 0.01%): 1.1 | Score, Determination A (Candida albicans; conc. 0.03%): 0.6 | Score, Determination B (Candida albicans; conc. 0.03%): 0.8 | Score, Determination C (Candida albicans; conc. 0.03%): 0 | Score, Determination D (Candida albicans; conc. 0.03%): 0.4 | Score, Mean (Candida albicans; conc. 0.03%): 0.45 | times more efficacious than prior art compound 2, Candida induced vaginal infection in mice (Candida albicans; relative to prior art compound 2 (for 3a: hydrogen fumarate vs hydrogen fumarate)): greater than 85 times

MIC (Streptococcus pyogenes): > 63 µg/mL | MIC (Staphylococcus aureus; Strain A): > 63 µg/mL | MIC (Staphylococcus aureus; Strain B): > 63 µg/mL | MIC (Staphylococcus aureus; Strain C): > 63 µg/mL | MIC (Streptococcus pneumoniae): > 63 µg/mL | EC50, Trichophyton Skin Infection (Trichophyton quinekeanum): 0.053% | EC50 (%) (95% CL), Trichophyton skin infection (Trichophyton quinekeanum): 0.053% | EC50, Candida Vaginal Infection (Candida albicans): 0.0011% | EC50 (%) (95% CL), Candida vaginal infection (Candida albicans): 0.0011% | MIC (S. faecalis): > 63 µg/mL
SMILES: Cl.Clc1ccc(CSCSC(Cn2ccnc2)c2ccc(Cl)cc2Cl)cc1 (centres unmarked) [Compound 3b, 1-[2-(4-Chlorobenzylthiomethylthio)-2-(2,4-dichlorophenyl)ethyl]-1H-imidazole hydrochloride]
Score, Determ. F (Trichophyton quinekeanum; conc. 0.03%): 3.5 | Score, Determ. G (Trichophyton quinekeanum; conc. 0.03%): 1.3 | Score, Mean (Trichophyton quinekeanum; conc. 0.03%): 2.4 | Score, Determ. F (Trichophyton quinekeanum; conc. 0.1%): 1.0 | Score, Determ. G (Trichophyton quinekeanum; conc. 0.1%): 0.3 | Score, Mean (Trichophyton quinekeanum; conc. 0.1%): 0.7 | Score, Determ. F (Trichophyton quinekeanum; conc. 0.3%): 0.3 | Score, Determ. G (Trichophyton quinekeanum; conc. 0.3%): 0.3 | Score, Mean (Trichophyton quinekeanum; conc. 0.3%): 0.3 | Score, Determination C (Candida albicans; conc. 0.0003%): 1.6 | Score, Determination D (Candida albicans; conc. 0.0003%): 3.3 | Score, Mean (Candida albicans; conc. 0.0003%): 2.5 | Score, Determination A (Candida albicans; conc. 0.001%): 3.0 | Score, Determination C (Candida albicans; conc. 0.001%): 1.6 | Score, Determination D (Candida albicans; conc. 0.001%): 0.4 | Score, Mean (Candida albicans; conc. 0.001%): 1.7 | Score, Determination A (Candida albicans; conc. 0.003%): 0.4 | Score, Determination B (Candida albicans; conc. 0.003%): 2.0 | Score, Determination C (Candida albicans; conc. 0.003%): 2.2 | Score, Determination D (Candida albicans; conc. 0.003%): 0.2 | Score, Mean (Candida albicans; conc. 0.003%): 1.2 | Score, Determination A (Candida albicans; conc. 0.01%): 1.4 | Score, Determination B (Candida albicans; conc. 0.01%): 0.6 | Score, Determination C (Candida albicans; conc. 0.01%): 1.4 | Score, Determination D (Candida albicans; conc. 0.01%): 0 | Score, Mean (Candida albicans; conc. 0.01%): 0.85 | Score, Determination A (Candida albicans; conc. 0.03%): 0 | Score, Determination B (Candida albicans; conc. 0.03%): 0.8 | Score, Determination C (Candida albicans; conc. 0.03%): 2.4 | Score, Determination D (Candida albicans; conc. 0.03%): 0.8 | Score, Mean (Candida albicans; conc. 0.03%): 1.0 | Score, Determination A (Candida albicans; conc. 0.1%): 0.2 | Score, Determination B (Candida albicans; conc. 0.1%): 0 | Score, Mean (Candida albicans; conc. 0.1%): 0.1 | Score, Determination A (Candida albicans; conc. 0.3%): 0 | Score, Determination B (Candida albicans; conc. 0.3%): 0 | Score, Mean (Candida albicans; conc. 0.3%): 0

MIC (Streptococcus pyogenes): 63 µg/mL | MIC (Staphylococcus aureus; Strain A): 0.5 µg/mL | MIC (Staphylococcus aureus; Strain B): > 63 µg/mL | MIC (Staphylococcus aureus; Strain C): 0.5 µg/mL | MIC (Streptococcus pneumoniae): 63 µg/mL | EC50, Trichophyton Skin Infection (Trichophyton quinekeanum): 0.046% | EC50, Candida Vaginal Infection (Candida albicans): 0.0042% | MIC (S. faecalis): 2 µg/mL
SMILES: Cc1ccc(CSCSC(Cn2ccnc2)c2ccc(Cl)cc2Cl)cc1.O=C(O)/C=C/C(=O)O (centres unmarked) [Compound 3c, 1-[2-(2,4-Dichlorophenyl)-2-(4-methylbenzylthiomethylthio)ethyl]-1H-imidazole hydrogen fumarate]
